# Patent US11578056B2, “Solid forms comprising (S)-2-(2,6-dioxopiperidin-3-yl)-4-((2-fluoro-4-((3-morpholinoazetidin-1-yl)methyl)benzyl)amino)isoindoline-1,3-dione and salts thereof, and compositions comprising and methods of using the same” (Celgene Corporation, priority 2019, dated 2023)
# How the values were obtained:
# Assay in all cases: Hematological cell line viability/apoptosis flow cytometry assay
# Assay type in all cases: cell-based
# [1] = system: L-591 cell line; conditions: L-591 (HL), 120 h
# How it was run: (§1)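 Cells were treated with compound at 0.00015 to 10 μM (0.1% DMSO) for 120 hours, then stained with Annexin V and DRAQ7 for flow cytometry. Live (double-negative) counts were normalized to DMSO to fit IC50, Emax and AUC; total early plus late apoptosis gave EC50, Ymax and AUC.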
# [2] = system: Toledo cell line; conditions: Toledo (DLBCL GCB); 120 h
# How it was run: as §1
# [3] = system: SU-DHL-5 cell line; conditions: SU-DHL-5 (DLBCL); 120 h
# How it was run: as §1
# [4] = system: I83-E95 cell line; conditions: I83-E95 (CLL), 120 h
# How it was run: as §1
# [5] = system: KARPAS-422 cell line; conditions: KARPAS-422 (DLBCL GCB); 120 h
# How it was run: as §1
# [6] = system: Pfeiffer cell line; conditions: Pfeiffer (DLBCL GCB); 120 h
# How it was run: as §1
# [7] = system: DB cell line; conditions: 120 h
# How it was run: as §1
# [8] = system: WSU-DLCL cell line; conditions: WSU-DLCL (DLBCL GCB), 120 h
# How it was run: as §1
# [9] = system: BL-41 cell line; conditions: BL-41 (BL), 120 h
# How it was run: as §1
# [10] = system: OPM-2 cell line; conditions: OPM-2 (MM), 120 h
# How it was run: as §1
# [11] = system: ROS-50 cell line; conditions: ROS-50 (DLBCL), 120 h
# How it was run: as §1
# [12] = system: SU-DHL-16 cell line; conditions: SU-DHL-16 (DLBCL GCB); 120 h
# How it was run: as §1
# [13] = system: CI cell line; conditions: CI (CLL), 120 h
# How it was run: as §1
# [14] = Homo sapiens, read-out: % Viable Cells IC50
structure (smiles),measurement,setting,value
"O=C1CC[C@H](N2C(=O)c3cccc(NCc4ccc(CN5CC(N6CCOCC6)C5)cc4F)c3C2=O)C(=O)N1 [Compound 1, (S)-2-(2,6-dioxopiperidin-3-yl)-4-((2-fluoro-4-((3-morpholinoazetidin-1-yl)methyl)benzyl)amino)isoindoline-1,3-dione]",% Viable Cells AUC,[1],334.2
same,% Viable Cells Emax,[1],34.6%
same,Apoptosis AUC,[1],45.59
same,Apoptosis Ymax,[1],20.0%
same,EC50,[1],1520 nM
same,IC50,[1]; read-out: % Viable Cells IC50,0.3 nM
same,% Viable Cells AUC,[2],112.3
same,% Viable Cells Emax,[2],8.56%
same,Apoptosis AUC,[2],231.4
same,Apoptosis Ymax,[2],27.5%
same,% Viable Cells AUC,[3],1.873
same,% Viable Cells Emax,[3],0.1398%
same,Apoptosis AUC,[3],934.1
same,Apoptosis Ymax,[3],95.23%
same,% Viable Cells AUC,[4],259.2
same,% Viable Cells Emax,[4],21.6%
same,Apoptosis AUC,[4],358.4
same,Apoptosis Ymax,[4],40.69%
same,EC50,[4],61.1 nM
same,IC50,[4]; read-out: % Viable Cells IC50,17.3 nM
same,% Viable Cells AUC,[5],19.97
same,% Viable Cells Emax,[5],0.8721%
same,Apoptosis AUC,[5],911.9
same,Apoptosis Ymax,[5],93.99%
same,% Viable Cells AUC,[6],313.5
same,% Viable Cells Emax,[6],24.49%
same,Apoptosis AUC,[6],493.3
same,Apoptosis Ymax,[6],51.82%
same,% Viable Cells AUC,[7],941.4
same,% Viable Cells Emax,[7],89.46%
same,Apoptosis AUC,[7],80.31
same,Apoptosis Ymax,[7],11.62%
same,IC50,[7]; [14],> 10000 nM
same,% Viable Cells AUC,[8],341.9
same,% Viable Cells Emax,[8],27.83%
same,Apoptosis AUC,[8],565.1
same,Apoptosis Ymax,[8],59.91%
same,EC50,[8],18 nM
same,IC50,[8]; read-out: % Viable Cells IC50,142 nM
same,% Viable Cells AUC,[9],270.2
same,% Viable Cells Emax,[9],96.65%
same,Apoptosis AUC,[9],288.2
same,Apoptosis Ymax,[9],79.5%
same,EC50,[9]; Homo sapiens,6920 nM
same,IC50,[9]; [14],6060 nM
same,EC50,[10]; Homo sapiens,1320 nM
same,IC50,[10]; [14],0.3 nM
same,% Viable Cells AUC,[10],210.5
same,% Viable Cells Emax,[10],6.65%
same,Apoptosis AUC,[10],212.6
same,Apoptosis Ymax,[10],63.00%
same,% Viable Cells AUC,[11],762.1
same,% Viable Cells Emax,[11],65.57%
same,Apoptosis AUC,[11],87.92
same,Apoptosis Ymax,[11],10.9%
same,EC50,[11],335 nM
same,IC50,[11]; read-out: % Viable Cells IC50,> 10000 nM
same,% Viable Cells AUC,[12],149.7
same,% Viable Cells Emax,[12],7.137%
same,Apoptosis AUC,[12],492.6
same,Apoptosis Ymax,[12],60.79%
same,% Viable Cells AUC,[13],603.9
same,% Viable Cells Emax,[13],53.58%
same,Apoptosis AUC,[13],123.2
same,Apoptosis Ymax,[13],13.01%
same,EC50,[13],22.9 nM
same,IC50,[13]; read-out: % Viable Cells IC50,9700 nM
